Data reported in US9877978B2, “Compositions comprising NDGA derivatives and sorafenib and their use in treatment of cancer” (THE JOHNS HOPKINS UNIVERSITY, priority 2012, dated 2018).
Where two headings read alike, the source gives them in different places.

How the values were obtained:
HepG2 human HCC cells = assay: MTT cytotoxicity assay with median-effect / combination index analysis; format: cell-based; conditions: for DRI value at ED75 / DRI value at ED90 / DRI value at ED95: single agent vs combination; for IC50: Homo sapiens
Method: Cytotoxicity assay. […] M4N was used at concentrations between 0 and 80 μM. For the combination of M4N and sorafenib a constant molar ratio of 2:1 (M4N:sorafenib) was used. Twenty four hours after drug addition, cytotoxicity was assessed with the MTT assay with […] measured with a Power Wave 200 microplate reader.
Evaluation of drug interactions. The combination index (CI) isobologram method of Chou and Talalay, which is based on the median-effect principle, was used to calculate synergism or antagonism for the combined drug effects. Dose-effect curves for the two drugs, singly and in combination, in serially diluted concentrations were plotted using the median-effect equation and plot and the CI equation and plot. CI values at different effect and dose levels and isobolograms were generated automatically using the computer software CompuSyn. With this method, additive, synergistic, or antagonistic effects are indicated by CI values of 1, <1, and >1, respectively. Comparison of the ratio of doses required to reach a given effect level for each single drug and the drugs in combination was used to determine the dose-reduction.

[1] = tested on: caspase activation (procaspases 9, 4 and 7, caspase 3) in AsPc-1 human pancreatic carcinoma cells; assay: Western immunoblot analysis of caspase activation; format: cell-based; conditions: for caspase activation (procaspase cleavage): 80 μM M4N, 40 μM sorafenib (FIG. 17); for caspase 3 activation: after 18 h of treatment
Method: Western immunoblot analysis. Treated and control cells were washed with PBS and suspended in RIPA buffer (150 mM NaCl, 50 mM Tris-HCL (pH8.0), 0.1% SDS, 1% NP40, and 0.5% deoxycholate) supplemented with protease inhibitor cocktail. After a 20 min incubation on ice, the suspension was centrifuged to clear the solubilized proteins. Bradford protein assay were performed and samples containing equivalent amounts of protein were resolved by standard SDS-polyacrylamide gel electrophoresis and transferred to nirocellulose membrane. The membranes were blocked with skim milk, and incubated with primary antibodies at 4° C. overnight and then with secondary antibody conjugated with horse radish peroxidase at room temperature for 1 h. The signals were detected by western blot chemiluminescence detection reagent.

[2] = HepG2, concurrent administration of M4N

Compound	DRI value at ED75 (HepG2 human HCC cells; HepG2, 24 h)	DRI value at ED90 (HepG2 human HCC cells; HepG2, 24 h)	DRI value at ED95 (HepG2 human HCC cells; HepG2, 24 h)	IC50 (HepG2 human HCC cells; HepG2, 24-Hour Treatment, combination at constant molar ratio 2:1 (M4N:sorafenib), read-out: Dm, median effect dose (concentration that inhibits cell growth by 50%))	caspase activation (procaspase cleavage) [1]	caspase 3 activation [1]	DRI: decrease of concentration necessary to inhibit growth of 50% of cells (ED50) (HepG2 human HCC cells; [2])	DRI: decrease of concentration necessary to inhibit growth of 75% of cells (ED75) (HepG2 human HCC cells; [2])	DRI: decrease of concentration necessary to inhibit growth of 95% of cells (ED95) (HepG2 human HCC cells; [2])	IC50 (HepG2 human HCC cells; HepG2, after 24 h of treatment (FIG. 4), read-out: IC50 against HepG2 cells)	cytotoxic effect (HepG2 human HCC cells; sorafenib 20 μM alone, HepG2, 24 h)
COc1ccc(C[C@@H](C)[C@@H](C)Cc2ccc(OC)c(OC)c2)cc1OC [M4N, tetra-O-methyl nordihydroguaiaretic acid]	3.15	1.75	1.17	283 µM	little effect on caspase activation	neither drug nor their combination had an effect					
CNC(=O)c1cc(Oc2ccc(NC(=O)Nc3ccc(Cl)c(C(F)(F)F)c3)cc2)ccn1 [sorafenib]	92815.6	489945.0	1519041		decreased levels of procaspases 9, 4 and 7	neither drug nor their combination had an effect	17,583.1 fold	92,815.6 fold	151,9041 fold	~30 µM	~20%
